≈ marks a conversion by molar mass, not a printed value. Like-named read-outs stand apart in the source and are kept apart here.
Key:
Actinomyces naeslundii = experiment: Antimicrobial activity determination (MIC); format: cell-based; details: for MIC: read-out: Minimimum Inhibitory Concentrations
Experimental: (§1) The antimicrobial activity of the targeted agents was assessed by determining the minimum inhibitory concentration (MIC). Pure cultures of various strains of oral bacterial species as indicated in Table 3 were combined with serial dilutions of the targeted agents in beef heart infusion broth (BHI); starting bacterial concentrations were approximately 1.0 x 10E6 colony forming units (CFU) per ml. The mixtures were incubated aerobically at 37 degrees C and the optical density (540 nm, path length 1cm) of the cultures was measured at 0.0, 24.0 and 48.0 hr using Bausch and Lomb Spec 20 variable wavelength spectrophotometer.

Candida albicans = experiment: Antimicrobial activity determination (MIC); format: cell-based; details: for MIC: read-out: Minimimum Inhibitory Concentrations
Experimental: as §1

Neisseria subflava = experiment: Antimicrobial activity determination (MIC); format: cell-based; details: for MIC: read-out: Minimimum Inhibitory Concentrations
Experimental: as §1

Prevotella intermedius = experiment: Antimicrobial activity determination (MIC); format: cell-based; details: read-out: Minimimum Inhibitory Concentrations
Experimental: as §1

Streptococcus sanguis = experiment: Antimicrobial activity determination (MIC); format: cell-based; details: for MIC: Streptococcus, read-out: Minimimum Inhibitory Concentrations
Experimental: as §1

Streptococcus sobrinus = experiment: Antimicrobial activity determination (MIC); format: cell-based; details: for MIC: read-out: Minimimum Inhibitory Concentrations
Experimental: as §1

Veillonella dispar = experiment: Antimicrobial activity determination (MIC); format: cell-based; details: read-out: Minimimum Inhibitory Concentrations
Experimental: as §1

[1] = Krafft point of a 1% dispersion in water; format: physicochemical; details: 1% dispersion of the surfactant in water
Experimental: The temperature at and above which surfactants begin to form micelles instead of precipitates is referred to as Krafft point (Tk) and at this temperature the solubility of a surfactant becomes equal to its CMC.
Krafft point was measured by preparing a 1% dispersion of the surfactant in water. If the surfactant was soluble at room temperature, the solution was cooled to 0°C. […] If it precipitated out, the solution was slowly warmed with stirring in a water bath. The temperature at which the precipitate dissolved was determined to be the Krafft point.
If the Krafft point was above room temperature, the solution was first heated rapidly to dissolve all the surfactant. It was then cooled until precipitation occurred, and was then slowly warmed to determine the Krafft point described above.

[2] = Foam height, Ross-Miles method; format: physicochemical; details: 45°C, water with 120 ppm hardness
Experimental: Since most of the foaming data on surfactants is typically obtained by the Ross-Miles method (Ross, J. and Miles, G.D., am. Soc. for Testing Material Method D1173-53 Philadelphia, PA. (1953); Oil & Soap (1958) 62:1260) the foaming ability of these surfactants was also acquired using this method.
In the Ross-Miles method, 200 mL of a solution of surfactant contained in a pipette of specified dimensions with a 2.9-mm-i.d. orifice is allowed to fall 90 cm onto 50 mL of the same solution contained in a cylindrical vessel maintained at a given temperature (often 60°C) by means of a water jacket. The height of the foam produced in the cylindrical vessel is read immediately after all the solution has run out of the pipette (initial foam height) and then again after a given amount of time (generally, 5 min).
Using this method, the foam production (measured initially) and foam stability (the height after 10 minutes) are reported. […] The foam height is represented in millimeters (mm).

[3] = test system: several species of oral bacteria; experiment: MIC assays on several species of oral bacteria (stated in words); format: cell-based; details: result in words
Experimental: as §1

Porphyromonas gingivalis = experiment: Antimicrobial activity determination (MIC); format: cell-based; details: read-out: Minimimum Inhibitory Concentrations
Experimental: as §1

[4] = test system: Actinomyces naeslundii PK29 and Streptococcus sanguis G9B; experiment: Bacterial coaggregation assay; format: cell-based; details: for inhibition of coaggregation between A. naeslundii and S. sanguis: result in words
Experimental: A bacterial coaggregation assay was used to determine the ability of various amino sugars to interfere with lectin-mediated binding among various bacterial species. For instance, many Actinomyces naeslundii strains coaggregate with Streptococcus sanguis as a result of binding between a lectin produced by the A. naeslundii cells and β-galactose-containing structures on the surface of the streptococci. For the present assay, A. naeslundii PK29 and S. sanguis G9B were cultured overnight in a medium containing 2.5% tryptone, 1.5% yeast extract, 0.1% magnesium sulfate, and 1.0% fructose. The cells were then washed twice in a 1.0 mM potassium phosphate buffer (pH = 6.8) containing 1.0 mM calcium chloride, 0.1 mM magnesium chloride, and 50.0 mM potassium chloride (buffered KCl), after which they were resuspended in buffered KCl at an optical density (540 nm) of 1.5. The coaggregations were performed by combining 0.5 ml of each bacterial suspension with 0.2 ml of 5.0% bovine serum albumin (BSA) and 0.8 ml of an appropriate concentration of a targeted anti-plaque agent in 3.0 ml capped polystyrene cuvettes. The cuvettes (path length 1 cm) were gently inverted at room temperature, and the optical density (540 nm) was determined as a function of time (2.0 min intervals; 20 min). The instrument employed to measure optical density was a variable wavelength spectrophotometer (Gilson Response^(R) Spectrophotometer, bought from Gilson).
The activity of a tested compound was expressed as % inhibition relative to buffer controls (i.e., % inhibition = [1 - change in optical density (inhibitor)]/ change in optical density [control]) x 100 [formula] .
The ability of various aldobionamide compounds (prepared as described in Example 1) to target to β-galactose-specific binding proteins on A. naeslundii and thus to interfere with coaggregation interactions between A. naeslundii and S. sanquis was investigated. Coaggregation of Actinomyces naeslundii PK29 and Streptococcus sanguis G9B was performed as described in the Methods section (Bacterial Coaggregation Assay) above. % Inhibition was calculated as 1.0 - the change in optical density (540 nm) in the sample containing compound tested/the change in optical density in the coaggregation buffer control. The inhibitory activity of the antiplaque agents within the scope of the invention was compared to the inhibitory activity of lactobionic acid and N-alkyl gluconamides, which are not within the scope of the invention. The gluconamides were prepared analogously to N-alkyl lactobionamides from glucono-δ-lactone (Sigma Chemicals) and the requisite aliphatic amine.

[5] = BHI broth, aerobic, 37 degrees C
[6] = Prevotella intermedius, BHI broth, aerobic, 37 degrees C
[7] = Streptococcus sanguis, BHI broth, aerobic, 37 degrees C

Compound	MIC (Actinomyces naeslundii; [5]) [µg/mL]	MIC (Candida albicans; [5]) [µg/mL]	MIC (Neisseria subflava; [5]) [µg/mL]	MIC (Prevotella intermedius; [6]) [µg/mL]	MIC (Streptococcus sanguis; [7]) [µg/mL]	MIC (Streptococcus sobrinus; [5]) [µg/mL]	MIC (Veillonella dispar; [5]) [µg/mL]	further results
CCCCCCCCCCNC(=O)[C@H](O)[C@@H](O)[C@H](O[C@@H]1O[C@H](CO)[C@H](O)[C@H](O)[C@H]1O)[C@H](O)CO [Decyl lactobionamide, N-decyl lactobionamide]	> 500	500 (≈ 1000 µM)	500 (≈ 1000 µM)	> 500	> 500	> 500	500 (≈ 1000 µM)	Krafft Point [1]: 0 °C; Initial Height ([2]; foam production, measured initially): 150 mm; After 10 Minutes ([2]; foam stability, height after 10 minutes): 5 mm
CCCCCCCCCCNC(=O)[C@H](O)[C@@H](O)[C@H](O)[C@H](O)CO [Decylgluconamide, reference compound]	> 5000	–	–	–	> 5000	> 5000	–	–
O=C(O)[C@H](O)[C@@H](O)[C@H](O[C@@H]1O[C@H](CO)[C@H](O)[C@H](O)[C@H]1O)[C@H](O)CO [Dodecyl ammonium lactobionate, Dodecylammonium lactobionate]	–	–	125	16	–	–	16	Minimimum Inhibitory Concentrations (Actinomyces naeslundii; [5]): 0.003 % w/v; Minimimum Inhibitory Concentrations (Streptococcus sanguis; [7]): 0.006 % w/v; Minimimum Inhibitory Concentrations (Streptococcus sobrinus; [5]): 0.003 % w/v; anti-microbial activity [3]: significant anti-microbial activity
CCCCCCCCCCCCOC(=O)CCNC(=O)[C@H](O)[C@@H](O)[C@H](O[C@@H]1O[C@H](CO)[C@H](O)[C@H](O)[C@H]1O)[C@H](O)CO [Dodecyl-B-alanyl-lactobionamide, N-lactobionyl dodecyl β-alanate]	125 (≈ 209 µM)	500 (≈ 837 µM)	500 (≈ 837 µM)	–	125 (≈ 209 µM)	1000 (≈ 1670 µM)	–	–
CCCCCCCCCCCCCCCCNC(=O)[C@H](O)[C@@H](O)[C@H](O[C@@H]1O[C@H](CO)[C@H](O)[C@H](O)[C@H]1O)[C@H](O)CO [Hexadecyl lactobionamide, N-hexadecyl lactobionamide]	60 (≈ 103 µM)	1000 (≈ 1720 µM)	1000 (≈ 1720 µM)	> 500	125 (≈ 215 µM)	1000 (≈ 1720 µM)	> 500	MIC (Porphyromonas gingivalis; [5]): > 500 µg/mL
O=C(O)[C@H](O)[C@@H](O)[C@H](O[C@@H]1O[C@H](CO)[C@H](O)[C@H](O)[C@H]1O)[C@H](O)CO [Lactobionic acid, reference compound]	–	–	–	–	–	–	–	Minimimum Inhibitory Concentrations (Actinomyces naeslundii; [5]): >0.5 % w/v; Minimimum Inhibitory Concentrations (Streptococcus sanguis; [7]): >0.5 % w/v; Minimimum Inhibitory Concentrations (Streptococcus sobrinus; [5]): >0.5 % w/v
CCCCCCCCNC(=O)[C@H](O)[C@@H](O)[C@H](O[C@@H]1O[C@H](CO)[C@H](O)[C@H](O)[C@H]1O)[C@H](O)CO [Octyl lactobionamide, N-octyl lactobionamide]	> 5000	> 1000	> 1000	> 1000	> 1000	> 5000	> 1000	MIC (Porphyromonas gingivalis; [5]): > 1000 µg/mL
CCCCCNC(=O)[C@H](O)[C@@H](O)[C@H](O[C@@H]1O[C@H](CO)[C@H](O)[C@H](O)[C@H]1O)[C@H](O)CO [Pentyl lactobionmamide, N-pentyl lactobionamide]	> 5000	> 1000	> 1000	> 1000	> 1000	> 5000	> 1000	MIC (Porphyromonas gingivalis; [5]): > 1000 µg/mL
CCCNC(=O)[C@H](O)[C@@H](O)[C@H](O[C@@H]1O[C@H](CO)[C@H](O)[C@H](O)[C@H]1O)[C@H](O)CO [Propyl lactobionamide, N-propyl lactobionamide]	> 5000	> 1000	> 1000	> 1000	> 1000	> 5000	> 1000	MIC (Porphyromonas gingivalis; [5]): > 1000 µg/mL
CCCCCCCCCCCCOS(=O)(=O)[O-].[Na+] [Sodium dodecyl sulfate, reference compound]	–	–	–	–	–	–	–	MIC (Actinomyces naeslundii): 8 µg/mL; MIC (Candida albicans): 60 µg/mL; MIC (Neisseria subflava): 8 µg/mL; MIC (Porphyromonas gingivalis): 2 µg/mL; MIC (Prevotella intermedius; Prevotella): 16 µg/mL; MIC (Streptococcus sanguis): 15 µg/mL; MIC (Streptococcus sobrinus): 60 µg/mL; MIC (Veillonella dispar): 60 µg/mL
O=C(O)[C@H](O)[C@@H](O)[C@H](O[C@@H]1O[C@H](CO)[C@H](O)[C@H](O)[C@H]1O)[C@H](O)CO [Tetradecyl ammonium Lactobionate, Tetradecylammonium lactobionate]	–	120	–	–	–	–	–	inhibition at 500 µM ([4]; Actinomyces naeslundii, 0.5 mMol/L, coaggregation of A. naeslundii PK29 and S. sanguis G9B, relative to buffer control, read-out: Percent Inhibition): 0%; inhibition at 700 µM ([4]; Actinomyces naeslundii, 0.7 mMol/L, coaggregation of A. naeslundii PK29 and S. sanguis G9B, relative to buffer control, read-out: Percent Inhibition): 11%; inhibition at 900 µM ([4]; Actinomyces naeslundii, 0.9 mMol/L, coaggregation of A. naeslundii PK29 and S. sanguis G9B, relative to buffer control, read-out: Percent Inhibition): 66%; inhibition at 1400 µM ([4]; Actinomyces naeslundii, 1.4 mMol/L, coaggregation of A. naeslundii PK29 and S. sanguis G9B, relative to buffer control, read-out: Percent Inhibition): 99%; inhibition at 1800 µM ([4]; Actinomyces naeslundii, 1.8 mMol/L, coaggregation of A. naeslundii PK29 and S. sanguis G9B, relative to buffer control, read-out: Percent Inhibition): 100%; inhibition of coaggregation between A. naeslundii and S. sanguis [4]: effective inhibitor of coaggregation; Minimimum Inhibitory Concentrations (Actinomyces naeslundii; [5]): 0.006 % w/v; Minimimum Inhibitory Concentrations (Streptococcus sanguis; [7]): 0.0016 % w/v; Minimimum Inhibitory Concentrations (Streptococcus sobrinus; [5]): 0.0125 % w/v; anti-microbial activity [3]: significant anti-microbial activity
CCCCCCCCCCCCCCNC(=O)[C@H](O)[C@@H](O)[C@H](O[C@@H]1O[C@H](CO)[C@H](O)[C@H](O)[C@H]1O)[C@H](O)CO [Tetradecyl lactobionamide, N-tetradecyl lactobionamide]	15 (≈ 27.1 µM)	30 (≈ 54.2 µM)	60 (≈ 108 µM)	8 (≈ 14.4 µM)	30 (≈ 54.2 µM)	125 (≈ 226 µM)	< 8	Krafft Point [1]: 46 °C
CCCCCCCCCCCCCCN.Cl [tetradecyl ammonium hydrochloride, reference compound]	–	–	–	–	–	–	–	inhibition of coaggregation between A. naeslundii and S. sanguis [4]: inhibited coaggregation; anti-microbial activity [3]: had antibacterial activity
Tetradecyl-glycyl-lactobionamide	–	–	–	–	–	–	–	Minimimum Inhibitory Concentrations (Actinomyces naeslundii; [5]): 0.0008 % w/v; Minimimum Inhibitory Concentrations (Candida albicans; [5]): 0.05 % w/v; Minimimum Inhibitory Concentrations (Neisseria subflava; [5]): 0.05 % w/v; Minimimum Inhibitory Concentrations (Streptococcus sanguis; [7]): 0.003 % w/v; Minimimum Inhibitory Concentrations (Streptococcus sobrinus; [5]): 0.05 % w/v
